≈ marks a conversion by molar mass, not a printed value. Read-outs that look alike come from different tables or passages of the source.
What was measured:
[1] = cited from earlier work
[2] = U.V. irradiation: biocide remaining
Procedure: (§1) The loaded biocides, together with the stock solutions, were spread on petri dishes and either placed in an incubator at 60° C. or exposed to U.V. irradiation in a Microscal unit (Miscoscal Limited, London) fitted with a 500 W high pressure mercury/tungsten lamp (wavelength>300 nm) operating at temperature 50° C. and a relative humidity in the region of 50%. […] Samples were withdrawn from the petri dishes undergoing thermal treatment and exposure to U.V. irradiation on a regular basis over a period in the region of 50 days. The amount of biocide remaining in each withdrawn sample was determined at the time of withdrawal using second derivative U.V.-visible Spectroscopy. The amount of biocide remaining in the stock solutions was determined by Gas Chromatography Mass Spectrometry. Relative peak heights corresponding to the residual parts of OIT, CIT and MIT were used to determine the concentrations of biocide in each sample.

[3] = Thermal ageing at 60° C.: biocide remaining; details: Thermal Ageing 60° C.
Procedure: as §1

[4] = system: Cladosporium cladosporioides; assay: Water leaching of paint discs: zone of inhibition before and after 24 hours leach; assay type: cell-based; details: acrylic high build paint; for Zone of Inhibition After Leaching: 24 hours water leach
Procedure: The method allows an assessment of the level of protection afforded by incorporating a biocide into a paint formulation. Filter discs (Whatman International Limited, Maidstone, Kent), Type 54, hardened 42.5 mm diameter were brush painted on one side of the disc with the test paints (24 hours between coats, 3 replicates per paint) to give an average loading of 0.05 g dried paint. The painted discs were cured at 60° C. for 2 days. One set of discs is then washed with a large volume of distilled water (20 liters) under controlled flow for 24 hours at ambient temperatures.
A freeze dried ampoule of Cladosporium cladosporioides (strain no. FS33 ex. Paint Research Association, Teddington, UK) was revived on potato dextrose agar (Oxoid Limited, Basingstoke, UK). A spore innoculum was prepared from the resultant sporing culture (5-7 days growth at 25° C.) by adding 5 ml of sterile distilled water to the surface of the culture on the agar and gently rubbing the surface with a sterile loop to dislodge the spores' mycelium. The resultant suspension was filtered through sterile wool and the filtrate used to seed molten (45° C.) potato dextrose agar prior to pouring into sterile Petri dishes.
Each painted disc was placed on the surface of the seeded agar plate, and the plates placed in a fridge (6-8° C.) for 24 hours to allow diffusion of the biocide. After this period, they were transferred to an incubator at 25° C. for five days. The diameter of the disc, plus any zone of inhibition (no fungal growth) around the discs was measured. An average of the three replicates is taken as a data point.
The biocidal efficiency of the two carriers (SD 2209 and SD 1866) loaded, at 30% by weight, with OIT and DCOIT in the acrylic high build formulation was compared before, and after, a 24 hours leach using procedure (ix) described hereinbefore. The paints containing the biocide carrying particles and those where the biocide was incorporated as the free biocide where used in the example.

[5] = system: Cladosporium cladosporioides; assay: Surface growth on painted discs after a further 14 days incubation; assay type: cell-based; details: biocide 300 ppm; for Zone of Inhibition After Leaching (surface of paint discs examined for growth): after water leaching
Procedure: To further distinguish performance the inoculated petri dishes containing the painted discs were incubated for a further 14 days so as to examine the extent of encroachment of the fungi into the surface of the paint film. The dishes were removed from the incubator and the surface of the paint discs examined for growth.

[6] = system: standard mixed inoculum of BS 3900: Part G6: 1989 with Alternaria altarnata; assay: Prolonged protection on paint panels (BS 3900: Part G6: 1989); assay type: cell-based; details: weathered panels; for Fungal growth rating % Cover D28: Day 28; for Fungal growth rating % Cover D84: Day 84
Procedure: Candidate carrier materials dispersed in water borne acrylic emulsion paint were subjected to the procedure of BS 3900: Part G6: 1989 to assess their long term fungicidal efficiency when compared with the biocide added directly to the paint.
Masterboard panels (150 mm×150 mm) were brush coated on one side with the test paints (2 coats, 24 hours between coats) and cured at 60° C. for two days. The coated panels were then weathered in a QUV apparatus (The Q-Panel Co. Bolton, UK) under the following conditions: 125±5 hours exposure to UVA (340 nm) at 40° C. with 1 hour water spray at approximately 24 hour intervals (5 in total). During the water spray the temperature cools to about 20° C.
After weathering the panels were cut into two equal samples and subjected to the procedure described in BS 3900: Part G6:1989. The control paint was the test paint without biocide. Alternaria altarnata was included in the standard mixed inoculum of BS 3900: Part G6: 1989.
Visual examination of the panels was carried out after 28, 36 and 84 days. In accordance with the standard procedure, the percentage cover of each panel by fungal growth was assessed.
Following on from the observations of Example 4, the two carriers SD 2209 and SD 1866 loaded, at 30% by weight, with OIT and DCOIT were incorporated into the paint formulation specified in Example 4 and subjected to BS 3900: Part G6 as described in procedure (x) hereinbefore to assess their long term film fungicidal efficiency in comparison with OIT and DCOIT added directly to the paint.
Masterboard panels (150 mm×150 mm) were brush coated on one side with the test paints (2 coats, 24 hours between coats) and cured at 60° C. for two days. The coated panels were then weathered in a QUV apparatus as described hereinbefore in procedure (x). After weathering the panels were cut into two equal samples and subjected to the procedure described in BS 3900: Part G6: 1989. The panels were exposed for 28, 36, and 84 days, in accordance with the standard procedure, and the percentage cover of each panel by fungal growth was assessed at these stages.

[7] = system: standard mixed inoculum of BS 3900: Part G6: 1989 with Alternaria altarnata; assay: as above; assay type: cell-based; details: weathered panels
Aureobasidium pullulans = assay: Minimum Inhibition Concentration (MIC); assay type: cell-based
Procedure: The retention factor, R, referred to above is determined from the equation R=A/P, where A represents the percentage active ingredient by weight remaining in the pore system after contacting with water according to the conditions defined herein and P represents the potency (Minimum Inhibition Concentration in mg of active ingredient per liter) of the biocide determined with respect to the reference microorganism Aureobasidium pullulans using the procedure defined herein.
The usefulness of the inorganic carrier particle will depend on the particular biocide being used, its effectiveness at various activity levels and the quantity of biocide (active ingredient) adsorbed and retained in the pore system. […]
The minimum inhibition concentration (MIC) is a measure of the potency of a biocide and comprises the minimum concentration (ppm) of a biocide active or formulation (normally quoted in terms of the active ingredient) determined experimentally in vitro to prevent the growth of a pure culture of a reference microorganism. […]
A standardised culture of the microbe under lest is prepared. […] The concentration at which no growth is detected is the minimum inhibition concentration (MIC) for that particlar biocide and reference organism. […]

[8] = 50.98 %
Procedure: as §1

[9] = 50.98 %; remark: listed apart in the source
Procedure: as §1

| SMILES | water solubility relative to OIT, in words [1] | amount of original biocide remaining (MIT, CIT, MIT/CIT) ([2]; 0 days) | amount of original biocide remaining (MIT, CIT, MIT/CIT) ([2]; 7 days) | amount of original biocide remaining (MIT, CIT, MIT/CIT) ([2]; 25 days) | amount of original biocide remaining (MIT, CIT, MIT/CIT) ([2]; 32 days) | amount of original biocide remaining (MIT, CIT, MIT/CIT) ([2]; 39 days) | amount of original biocide remaining (MIT, CIT, MIT/CIT) ([3]; 0 days) | amount of original biocide remaining (MIT, CIT, MIT/CIT) ([3]; 7 days) | amount of original biocide remaining (MIT, CIT, MIT/CIT) ([3]; 12 days) | amount of original biocide remaining (MIT, CIT, MIT/CIT) ([3]; 18 days) | Zone of Inhibition Before Leaching ([4]; biocide 300 ppm) | Zone of Inhibition After Leaching ([4]; biocide 300 ppm) | Zone of Inhibition Before Leaching ([4]; biocide 1,200 ppm) | Zone of Inhibition After Leaching ([4]; biocide 1,200 ppm) | Zone of Inhibition Before Leaching ([4]; biocide 4,000 ppm) | Zone of Inhibition After Leaching ([4]; biocide 4,000 ppm) | Zone of Inhibition Before Leaching (surface of paint discs examined for growth) [5] | Zone of Inhibition After Leaching (surface of paint discs examined for growth) [5] | Fungal growth rating % Cover D28 ([6]; biocide 300 ppm) | Fungal growth rating % Cover D84 ([6]; biocide 300 ppm) | also measured |
| --- | --- | --- | --- | --- | --- | --- | --- | --- | --- | --- | --- | --- | --- | --- | --- | --- | --- | --- | --- | --- | --- |
| Cn1sc(Cl)cc1=O [CIT, 5-Chloro-2-Methyl-4-isothiazolin-3-one] | more water soluble than OIT | 100 | 0 | 0 | 0 | 0 | 100 | 80 | 40 | 30 | – | – | – | – | – | – | – | – | – | – | amount of original biocide remaining (MIT, CIT, MIT/CIT) ([3]; 26 days): 0 |
| CCCCCCCCn1sc(Cl)c(Cl)c1=O [DCOIT, 4,5-Dichloro-2-Octyl-4-Isothiazolin-3-one] | – | – | – | – | – | – | – | – | – | – | 22 mm | OVERGROWTH | 25 mm | 1 mm | 38 mm | 2 mm | None | Growth | 23 % cover | 85 % cover | Fungal growth rating % Cover D28 ([6]; biocide 1,200 ppm): 8 % cover; Fungal growth rating % Cover D84 ([6]; biocide 1,200 ppm): 68 % cover; Fungal growth rating % Cover D28 ([6]; biocide 4,000 ppm): 0 % cover; Fungal growth rating % Cover D84 ([6]; biocide 4,000 ppm): 5 % cover; Fungal growth rating % Cover D56 ([7]; biocide 300 ppm): 85 % cover; Fungal growth rating % Cover D56 ([7]; biocide 1,200 ppm): 55 % cover; Fungal growth rating % Cover D56 ([7]; biocide 4,000 ppm): 0 % cover |
| Cn1sccc1=O [MIT, 2-Methyl-4-isothiazolin-3-one] | more water soluble than OIT | 100 | 78 | 69 | 62 | 50 | 100 | 95 | 90 | 80 | – | – | – | – | – | – | – | – | – | – | amount of original biocide remaining (MIT, CIT, MIT/CIT) ([2]; 55 days): 24; amount of original biocide remaining (MIT, CIT, MIT/CIT) ([3]; 40 days): 50 |
| CCCCCCCCn1sccc1=O [OIT, 2-Octyl-4-Isothiazolin-3-one] | – | – | – | – | – | – | – | – | – | – | 32 mm | OVERGROWTH | >42 mm | 1 mm | >42 mm | 1 mm | None | Growth | 35 % cover | 85 % cover | MIC (Aureobasidium pullulans; Aureobasidium pullulans, reference microorganism Aureobasidium pollulens): 36 µg/mL (≈ 169 µM); Minimum Inhibition Concentration (MIC) (Aureobasidium pullulans; reference microorganism Aureobasidium pullulans): 36 mg of active ingredient per liter; Fungal growth rating % Cover D28 ([6]; biocide 1,200 ppm): 3 % cover; Fungal growth rating % Cover D84 ([6]; biocide 1,200 ppm): 35 % cover; Fungal growth rating % Cover D28 ([6]; biocide 1,400 ppm): 0 % cover; Fungal growth rating % Cover D84 ([6]; biocide 1,400 ppm): 5 % cover; amount of original biocide remaining (OIT) ([8]; 0 h): 100; amount of original biocide remaining (OIT) ([8]; 288 h): 78; amount of original biocide remaining (OIT) ([8]; 432 h): 65; amount of original biocide remaining (OIT) ([8]; 960 h): 50; amount of original biocide remaining (OIT) ([9]; 0 h): 100; amount of original biocide remaining (OIT) ([9]; 336 h): 17; amount of original biocide remaining (OIT) ([9]; 1008 h): 1; Fungal growth rating % Cover D56 ([7]; biocide 300 ppm): 85 % cover; Fungal growth rating % Cover D56 ([7]; biocide 1,200 ppm): 35 % cover; Fungal growth rating % Cover D56 ([7]; biocide 1,400 ppm): 0 % cover |

— US6905698B1, “Particulate carrier for biocide formulations” (Ineos Silicas Limited, priority 1998, dated 2005)
